This note sets out measurements from patent US9931380B2, “Medicament for treating olfaction disorder” (priority 2015, dated 2018).

Assay [1] can be described thus: Blood sugar level of DM (STZ) mice given the insulin preparation. The format is in vivo, C57BL/6 mice. Particulars: intraperitoneally once a day, 2 to 3 U/kg of insulin detemir. As to the method:
(§1) To C57BL/6 mice (normal mice; Japan SLC, Inc) at the age of 10 weeks, 120 mg/kg of streptozotocin (STZ; Sigma-Aldrich) was administered intraperitoneally for three days in a row, on Days 0 (Initial administration), 1, and 2. On Day 7, those with a fasting blood glucose (fasting blood sugar level: FBS) of 250 mg/dl or more were defined as DM mice in which pancreatic β cells were specifically impaired. Moreover, subsequent operations used those with a blood sugar of more than 250 mg/dl at any time after about one week since the administration of STZ.
As the insulin preparation, “Levemir FlexPen (Registered Trademark)” was used (referred to as Levemir). Levemir was administered intraperitoneally into DM mice once a day, with 2 to 3 U/kg of the insulin detemir each. […] The amount of insulin given here was therefore regarded as the amount that can properly resolve the shortages of insulin in the DM mice. The olfactory epithelium tissues of groups of DM mice (group a, group b, and group c) were observed 14 days after the administration of methimazole (Refer to FIGS. 9A and 9B): Each group differs on the time when insulin was additionally given. […] Then, with the use of the above-described method, the number of olfactory nerve cells (OSNs) of olfactory epithelium, the thickness of olfactory epithelium, and the number of OMP positive cells were counted in each group. […]

In assay [2] the test system is olfactory epithelium. Nature of the assay: Regeneration of olfactory epithelium in DM model mice with methimazole-induced olfactory disturbance after insulin administration. The format is in vivo, C57BL/6 mice. Particulars: for number of olfactory nerve cells, DM mice vs normal mice / thickness of olfactory epithelium, DM mice vs normal mice / number of mature olfactory nerve cells (number of OMP positive cells), DM mice vs normal mice: read 14 days after methimazole. On the procedure:
as §1
To each of positive control mice, which were created by giving only physiological saline to normal mice, and DM mice, 80 mg/kg of methimazole (Siyma-Aldrich) was administered intraperitoneally in order to create model mice with olfactory disturbance. The model mice with olfactory disturbance were created as metabolites of methimazole selectively damaged olfactory epithelium. The mechanism of olfactory disturbance is considered to be the activation of caspase that induces apoptosis in olfactory cells. When normal mice were given methimazole, the damaged olfactory epithelium could recover to the almost normal level about 28 days after the administration. Moreover, normal mice that were given physiological saline instead of methimazole were used as control. Their weight and blood sugar levels of tail veins were measured 28 days after the methimazole injection.
The hearts of mice were perfused with 4% paraformaldehyde in 0.1M phosphate buffer. The mice were sacrificed and fixed 24 hours later with the same fixative. Nostril tissues containing OE were decalcified with a 10% EDTA solution (pH 7.0), and were embedded in paraffin. Coronal sections (with thickness of 4 μm) were cut off and put on silane-coated slides. The deparaffinized sections were autoclaved for 10 minutes in Target Retrieval Solution (S1700; Dako) for antigen retrieval. Immunohistochemistry was conducted with one of the following antibodies: Anti-insulin receptors, anti-phosphorylated insulin receptors, anti-olfactory marker proteins (OMP, goat polyclonal, 1:4000 dilution; Wako Chemicals), anti-activated caspase-3 (rabbit polyclonal, 1:5000; Cell Signaling Technology), anti-Ki-67 (mouse monoclonal, 1:500; BD Biosciences), and anti-c-fos antibodies (Rabbit IgG, 1:1000; Santa Cruz Biotechnology).
In order to suppress the variation of data values that could be caused by anatomical changes (e.g. aerated nasal turbinate) between mice and in the mice, the OE analysis was conducted in such a way as to be limited to OE (olfactory epithelium) of the nasal septum and nasal turbinate's top on the right and left sides in the nasal cavity.
Sections were cut at intervals of 500 μm. The olfactory epithelium included the following two cell lines: Olfactory nerve cells (OSNs) and basal stem cells. Rectangular cells on lamina propria in OE were defined as basal cells. The rest of the cells were defined as OSNs. The thickness, or distance from the lamina propria to the surface, was measured with software known as ImageJ. The number of OSNs labeled with anti-OMP, anti-activated caspase-3, and anti-Ki-67 antibody was quantitatively analyzed by uniquely immunostaining for each antigen and using sections counterstained with hematoxylin. As for connective tissues under the lamina propria, the immunostaining of cells with an intermediate background intensity more than double the standard deviation was regarded as being positive. The number of OSNs and the number of immunostained cells (OMP-positive cells, Ki-67-positive cells, and caspase-3 positive cells) were measured along the total length of the nasal septum in microscopic observation images (of each of normal groups and STZ groups) for both the left and right sides. […]

[3] abbreviates: group a: 3 U/kg i.p. day 1 to 14.
Where [4] appears, read: group b as printed: 3 U/kg i.p. day 1 to 7.
Setting [5] is: group b: 3 U/kg i.p. only day 1 to 7, 14 days after onset of disturbance.
Where [6] appears, read: groups a (day 1 to 14) and c (day 7 to 14), 3 U/kg i.p., 14 days after onset of disturbance.

Turning to insulin detemir [Levemir], the blood sugar levels entry in assay [1] is listed as “around 130 mg/dl”. For the same substance, in assay [2] (setting [3]), the “number of olfactory nerve cells, DM mice vs normal mice” value is given as “no significant difference” and the “thickness of olfactory epithelium, DM mice vs normal mice” value is listed as “no significant difference”. In addition, the “number of mature olfactory nerve cells (number of OMP positive cells), DM mice vs normal mice” value in assay [2] (group a: 3 U/kg i.p. every day, day 1 to 14 after methimazole) is “broadly comparable to normal mice”. Moreover, in assay [2] (setting [4]), the “number of olfactory nerve cells, DM mice vs normal mice” value is recorded as “no significant difference” and the “thickness of olfactory epithelium, DM mice vs normal mice” value was “no significant difference”. Moreover, the “number of mature olfactory nerve cells (number of OMP positive cells), DM mice vs normal mice” value in assay [2] (group b as printed: 3 U/kg i.p. only day 1 to 7 after methimazole) is reported as “broadly comparable to normal mice”. Further, in assay [2] (setting [5]), the “number of OMP positive cells, compared with groups a and c” value is reported as “significant decreases”; the “number of OSNs, compared with groups a and c” value is recorded as “significant decreases”; the “thickness of olfactory epithelium, compared with groups a and c” value was “significant decreases”. In assay [2] (setting [6]), the “number of OMP positive cells” value is given as “no significant differences”, the “number of OSNs” value is reported as “no significant differences” and the “thickness of olfactory epithelium” value was “no significant differences”.
